Where no end group is shown, it is not given here.

From publication PMC6145916, “Interaction of mitochondrial fission factor with dynamin related protein 1 governs physiological mitochondrial function in vivo” (Scientific Reports, 2018) come the findings set out here.

The test system of one assay is wild-type MEFs. Briefly: Mitochondrial membrane potential (TMRM), WT MEFs. It is filed as cell-based, mouse. Particulars: 20 µM P259 overnight, vs no peptide; 3 independent experiments, three technical replicates; ** p <0.01. As for the experimental part:
Data are of 3 independent experiments with the whiskers calculated by the Turkey method. e. […]
determined by an unpaired, two -tailed t test). g. […]
control (no peptide treatment). Data are mean ± s.e. from 3 independent experiments. […]
(§1) and without phenol red. […] After incubation
(§2) HEPES, and without phenol red. […]
epifluorescence microscope with a 10X objective (Keyence). The Cy5 filter (Keyence) was used to autofocus on the mitochondria plane. […]
Mitochondrial membrane potential determination
After treatment, cells were washed with
Cells were incubated in a 37
°C incubator for 30 minutes. […]

Another assay relates to SH-SY5Y cells. The experiment in a line: Mitochondrial ROS (MitoSox Red), SH-SY5Y. It is filed as cell-based, human. Conditions: overnight treatment, normalized to no peptide; 3 independent experiments. The procedure: Represented Western blot is cropped from a full blot shown in the Expanded Western Blots section of the Supplementary Information. […] Hoechst 33342 is shown in blue and Tom20 in green (n = 3, 10 images each). Below, quantification of the form factor (degree of branching) and major axis length (length of mitochondria). At least 6,000 mitochondrial fragments were measured for each condition. Mitochondrial reactive oxygen species (ROS) production (MitoSox Red) (c) and mitochondrial membrane potential (TMRM) (d) after overnight treatment with indicated concentrations of peptide or FCCP. Data are from 3 independent experiments per condition normalized to the average no peptide value. (e) Relative mitochondrial ROS (MitoSox Red) signal in GFP positive cells expressing full-length or alanine-substituted P259 at indicated amino acids after two days of transfection. Values are normalized to a GFP empty vector (n = 3, with 3 replicates). […] Data are mean ± s.e.
(§3) Following treatment, cells were washed with treatment media.
The Cy5 filter was used to autofocus on the mitochondria plane. […] MitoROS was calculated as the average MitoSox signal per cell. The mitochondrial membrane potential was calculated as the average TMRM signal in the mitochondrial mask. […]
(§4) calculated as the average MitoSox signal per cell. […]

A further assay relates to primary cortical neurons. The experiment in a line: Mitochondrial ROS (MitoSox Red), primary cortical neurons. Format: cell-based, rat. Conditions: overnight treatment; n = 3, with 3 replicates. The procedure:
Bottom, quantification of the form factor (degree of branching) and aspect ratio (major/minor axis length). At least 10,000 mitochondrial fragments were analyzed for each condition. Mitochondrial reactive oxygen species production (MitoSox Red) (b) and membrane potential (TMRM) (c) after overnight treatment with indicated concentrations of peptide (n = 3, with 3 replicates). […] Overlay of live microscopy imaging at time 0 (green) and 150 (red) seconds. […] An estimation of the % mobile mitochondria from the Pearson coefficient of each set of images. Data are mean ± s.e.
as §3
The Cy5 filter was used to autofocus on the mitochondria plane. Nuclei were imaged with a DAPI filter and the mitoROS (MitoSox) or membrane potential (TMRM) image was acquired with a TRITC filter. […] MitoROS was calculated as the average MitoSox signal per cell. The mitochondrial membrane potential was calculated as the average TMRM signal in the mitochondrial mask.
Mitochondrial reactive oxygen species determination […]
and 1% penicillin-streptomycin solution (Corning, NY, USA). Primary cortical neurons were treated with increasing concentrations of peptides in NbActiv1 media. HD Patient- and adult- […]
as §1, §2, §4

Another assay relates to HD R6/2 model mice. The experiment in a line: Survival of R6/2 Huntington's mice. It is filed as in vivo, mouse. Conditions: 3 mg/Kg/day, continuous subcutaneous osmotic pump, 8 weeks, vs TAT; 15 mice per group. The text has this:
(§5) (a) Quantification of mitochondrial Drp1 content relative to ALDH2 (a mitochondrial matrix enzyme) in the mitochondrial fraction isolated from total brain lysate of wild-type mice (Western blot shown in Fig. S3B) (n = 4 mice). (b) ATP content in brain tissue of wild-type mice (n = 4 mice, 2 replicates). (c) Representative transmission electron microscopy images of the striatum from wild-type mice. […] The first principal component represents 42% of the variation. (f) Local linear embedding dimensionality reduction and visualization of all behaviors collected weekly from TAT- (black) or P259- (purple) treated WT and TAT- (white) treated R6/2 mice over the course of 8 weeks. […] All behavior and survival tests were conducted by an experienced observer who was blinded to the treatment groups. Data are mean ± s.e.
(§6) Five-week old R6/2 HD mice and their wild-type littermates (a total of 60 mice) were implanted subcutaneously with a 28-d Alzet osmotic pump with either P259-TAT or TAT control peptide (15 mice per group) to be delivered continuously at a rate of 3 mg/Kg/day, as previously described. All mice were implanted twice for a total of an 8-week treatment. 20 of the WT mice were implanted 3 times for a total of a 12-week treatment at 3 mg/Kg/day. […]
(§7) To quantify mitochondrial motility, the images at time 0 and 150 seconds w ere overlaid. […]

For a further assay, the system named is striatal neurons. Briefly: Transmission electron microscopy of striatum. It is filed as in vivo, mouse. Particulars: 3 mg/Kg/day, 8 weeks, WT mice; 806 (TAT) and 1109 (P259) mitochondria from ten images per condition.
From the text: as §5, §6, §7

As for “YGRKKRRQRRRGSGIIQLPEIVVV-NH2 (C-terminus assumed) [P259]”, the “mitochondrial membrane potential, WT MEFs” value in the assay with wild-type MEFs is listed as “decreases”. Further, in the assay on SH-SY5Y cells, the “mitochondrial ROS levels” value was “increase in mitochondrial reactive oxygen species (ROS) levels”. Further, the “mitochondrial ROS” value in the assay with primary cortical neurons is on record as “increased mitochondrial ROS”. The “survival of HD R6/2 mice” value with HD R6/2 model mice is “further decline in survival”. For the same substance, in the assay with striatal neurons, the “mitochondrial size and shape in striatal neurons (electron microscopy)” value is “larger and more elongated mitochondria in striatal neurons”.
